Laboratory results from EP2154155B1, “Analysis of agonist-activity and antagonist-activity to cytokinin receptor” (Sumitomo Chemical Company, Limited, priority 2001, dated 2002).

Tests used:
[1] = test system: Arabidopsis thaliana cytokinin receptor AHK2, SEQ ID No: 2, expressed in transformed cell TM182-AHK2; conditions: 30°C, 30 hours
Description: (§1) More particularly, for example, in the case of using a transformed cell (that is, a transformed cell having a function of directly controlling the cell growth by intracellular signal transduction from the cytokinin receptor) produced using TM182 (sln1 Δ) [Maeda T et al, Nature 369: 242-245 (1994)], a SLN1 genetically defected strain in which, for example, PTP2 Tyrosine phosphatase gene [Ota et al. Proc. N. A. Sci., USA, 89, 2355-2359 (1992)] is introduced as a host cell, the agonist-activity to the cytokinin receptor may be measured using, as an indicator, the quantity of the cell growth of the transformed cell in a culture medium (an agar culture medium or a liquid culture medium) containing glucose as a carbon source, for example, a DOLU + Glu culture medium. In the case of the DOLU + Glu culture medium to which the examinee substance is added, the examinee substance found capable of growing the transformed cell can be evaluated as a substance having the agonist-activity to the cytokinin receptor. On the other hand, in the case of the DOLU+Glu culture medium to which the examinee substance and a substance having the agonist-activity to the cytokinin receptor are added, the examinee substance found capable of suppressing or inhibiting the growth of the transformed cell can be evaluated as a substance having the antagonist-activity to the cytokinin receptor. […]

[2] = test system: Arabidopsis thaliana cytokinin receptor CRE1, SEQ ID No: 6, expressed in transformed cell TM182-CRE1; assay: Growth of transformed yeast cells TM182-CRE1 spotted on DOLU + Glu agar media containing cytokinin; assay type: cell-based; conditions: 30°C, 30 hours; for lowest observed supply concentration in which the transformed cells could be grown: DOLU + Glu agar media, cytokinin 1 nM to 100 µM
Description: More particularly, for example, in the case of using a transformed cell (that is, a transformed cell having a function of directly controlling the cell growth by intracellular signal transduction from the cytokinin receptor) produced using TM182 (sln1 Δ) [Maeda T et al, Nature 369: 242-245 (1994)], a SLN1 genetically defected strain in which, for example, PTP2 Tyrosine phosphatase gene [Ota et al. Proc. N. A. Sci., USA, 89, 2355-2359 (1992)] is introduced as a host cell, the agonist-activity to the cytokinin receptor may be measured using, as an indicator, the quantity of the cell growth of the transformed cell in a culture medium (an agar culture medium or a liquid culture medium) containing glucose as a carbon source, for example, a DOLU + Glu culture medium. In the case of the DOLU + Glu culture medium to which the examinee substance is added, the examinee substance found capable of growing the transformed cell can be evaluated as a substance having the agonist-activity to the cytokinin receptor. On the other hand, in the case of the DOLU+Glu culture medium to which the examinee substance and a substance having the agonist-activity to the cytokinin receptor are added, the examinee substance found capable of suppressing or inhibiting the growth of the transformed cell can be evaluated as a substance having the antagonist-activity to the cytokinin receptor.
Transformation of TM182 (sln1Δ), SLN1 genetically detected strain, [Maeda T et al. Nature: 369 242-245 (1994)] was carried out using the obtained expression plasmid p415CYC-CRE1 (the example 5), p415CYC-AHK2 (the example 11), p415CYC-AHK2 Δ (the example 11) and p415CYC-AHK3 (the example 8). The transformation was carried out by employing Polyethylene glycol/lithium acetate (PEG/LiAc)-mediated transformation method according to the description of VII. Library Transformation & Screening Protocols disclosed in […] Two-Hybrid System 3 User Manual p.
After incubation, the growth state of the transformed cells was observed and photographed by a digital camera. […]

[3] = test system: Arabidopsis thaliana cytokinin receptor AHK3, SEQ ID No: 4, expressed in transformed cell TM182-AHK3; conditions: DOLU + Glu agar media containing 10 µM of trans-zeatin, 30°C, 30 hours, compared with media containing no trans-zeatin
Description: as §1

[4] = test system: Arabidopsis thaliana cytokinin receptor AHK2 variant AHK2Δ (partially transmembrane region-deleted type, amino acid number 196 to 1176 of SEQ ID No: 2) …; assay: Growth of transformed yeast cells TM182-AHK2Δ spotted on DOLU + Glu agar media containing cytokinin; assay type: cell-based; conditions: 30°C, 30 hours
Description: as §1

[5] = test system: Arabidopsis thaliana cytokinin receptor AHK2, SEQ ID No: 2, expressed in transformed cell TM182-AHK2; assay: Agonist-activity search: optical density of TM182-AHK2 liquid culture in 96-well plate; assay type: cell-based; conditions: examinee substance 100 µM at the final concentration, DOLU + Glu medium, 30°C, 24 hours, DMSO blank 0.01
Description: (§2) The pre-cultured solutions were diluted with DOLU + Glu media as to become 0.100 as the optical density (OD600) and further the resultants were diluted with DOLU + Glu media at a dilution rate of 1/200 to obtain diluted pre-cultured solutions.
(§3) An assay plate was prepared by filling respective wells of a 96-well plate with 20 µl of solutions which were prepared by diluting DMSO solution (10mM) of each examinee substance with DOLU + Glu medium at a dilution rate of 1/100, said solutions containing each examinee substance to be 100 µM at the final concentration. Simultaneously, an assay plate only filled with 20 µl of solutions which were prepared by diluting DMSO solution with DOLU + Glu medium, said solutions containing no examinee substance, was prepared as the blank sections.
(§4) The diluted pre-cultured solutions were added in 200 µl each into the respective wells of both assay plates and cultured at 30°C for 24 hours and then the optical density (OD620) of each well was measured by a plate reader. The agonist-activity of the examinee substances to the cytokinin receptor was detected by comparing the optical density measured in the testing sections to which the examinee substances were added with the optical density measured in the blank sections.

[6] = test system: Arabidopsis thaliana cytokinin receptor AHK3, SEQ ID No: 4, expressed in transformed cell TM182-AHK3; assay: Agonist-activity search: optical density of TM182-AHK3 liquid culture in 96-well plate; assay type: cell-based; conditions: examinee substance 100 µM at the final concentration, DOLU + Glu medium, 30°C, 24 hours, DMSO blank 0.51
Description: as §2, §3, §4

[7] = test system: Arabidopsis thaliana cytokinin receptor AHK2 variant AHK2Δ (partially transmembrane region-deleted type, amino acid number 196 to 1176 of SEQ ID No: 2) …; assay: Agonist-activity search: optical density of TM182-AHK2Δ liquid culture in 96-well plate; conditions: examinee substance 100 µM at the final concentration, DOLU + Glu medium, 30°C, 24 hours, DMSO blank 0
Description: The transformed cells TM 182-CRE 1, TM182-AHK2,TM182-AHK2 Δ and TM182-AHK3 produced in the example 12 were inoculated in 200 ml of DOLU + Gal culture media and pre-cultured at 30°C for 36 hours. The pre-cultured solutions were diluted with DOLU + Glu media as to become 0.100 as the optical density (OD600) and further the resultants were diluted with DOLU + Glu media at a dilution rate of 1/200 to obtain diluted pre-cultured solutions.
An assay plate was prepared by filling respective wells of a 96-well plate with 20 µl of solutions which were prepared by diluting DMSO solution (10mM) of each examinee substance with DOLU + Glu medium at a dilution rate of 1/100, said solutions containing each examinee substance to be 100 µM at the final concentration. […]
as §4

[8] = DOLU + Glu agar media, cytokinin 1 nM to 100 µM
[9] = DOLU + Glu agar media containing 10 µM of trans-zeatin, compared with media containing no trans-zeatin

SMILES: C/C(=C/CNc1ncnc2[nH]cnc12)CO [cis-zeatin]
- lowest observed supply concentration in which the transformed cells could be grown [1, 8]: 10 µ M
- lowest observed supply concentration in which the transformed cells could be grown [2]: no growth

SMILES: C/C(=C\CNc1ncnc2[nH]cnc12)CO [trans-zeatin]
- growth state of the transformed cells [3]: high growth
- growth state of the transformed cells [1, 9]: high growth
- growth state of the transformed cells [4, 9]: high growth
- lowest observed supply concentration in which the transformed cells could be grown [4, 8]: 100 nM
- growth state of the transformed cells [2, 9]: high growth
- lowest observed supply concentration in which the transformed cells could be grown [2]: 10 µ M

SMILES: CC1=CC(=O)CC(C)(C)[C@@]1(O)/C=C/C(C)=C\C(=O)O [Compound A, Abscisic acid]
- optical density (OD620) of the culture solutions of the transformed cells [5]: 0.01
- optical density (OD620) of the culture solutions of the transformed cells [6]: 0.54

SMILES: c1ccc(CNc2ncnc3nc[nH]c23)cc1 [Compound B, 6-Benzyl aminopurine]
- optical density (OD620) of the culture solutions of the transformed cells [5]: 0.45
- optical density (OD620) of the culture solutions of the transformed cells [6]: 0.88
- optical density (OD620) of the culture solutions of the transformed cells [7]: 0.89
